The test system of data set [1] is Human oral epidermoid carcinoma KB cells. Kind of data set: Cell growth inhibition assay (methylene blue dye), KB cells. The format is cell-based. The following applies: KB cells, bands, read-out: IC50, inhibiting proliferation of KB cells (band). As to the method:
Anticancer activities of the aryl substituted sulfonamide compounds synthesized in the above examples were evaluated by testing their inhibitory effects on mammalian cancer cell growth.
Human oral epidermoid carcinoma KB cells, non small cell lung carcinoma H460 cells, colorectal carcinoma HT29 cells, and stomach carcinoma MKN45 cells were maintained in RPMI-1640 medium supplied with 5% fetal bovine serum. The cells were treated with the test compound at various concentrations for 72 h.

The structures appear in SMILES notation.

For `COc1ccc(S(=O)(=O)n2ccc3ccnc(Nc4ccccc4)c32)cc1` [Compound 1, [1-(4-methoxy-benzenesulfonyl)-1H-pyrrolo[2,3-c]pyridin-7-yl]-phenyl-amine], the melting point lay in the range of 138.5 to 139.7 °C. The same measure, in the same setting: then `COc1ccc(S(=O)(=O)n2ccc3ccnc(N(C)C)c32)cc1` [Compound 3, [1-(4-methoxy-benzenesulfonyl)-1H-pyrrolo[2,3-c]pyridin-7-yl]-dimethyl-amine], with 154.8 to 157.5 °C; and `COc1ccc(Nc2nccc3ccn(S(=O)(=O)c4ccc(OC)cc4)c23)cc1` [Compound 4, [1-(4-methoxy-benzenesulfonyl)-1H-pyrrolo[2,3-c]pyridin-7-yl]-(4-methoxy-phenyl)-amine], with 155.5 to 158.3 °C. The same measure, in the same setting: in the case of `COc1ccc(S(=O)(=O)n2ccc3ccnc(Nc4ccc(F)cc4)c32)cc1` [Compound 5, (4-fluoro-phenyl)-[1-(4-methoxy-benzenesulfonyl)-1H-pyrrolo[2,3-c]pyridin-7-yl]-amine] it was 125.1 to 127.1 °C; in that of `COc1ccc(S(=O)(=O)n2ccc3ccnc(-c4ccccc4)c32)cc1` [Compound 6, 1-(4-methoxy-benzenesulfonyl)-7-phenyl-1H-pyrrolo[2,3-c]pyridine], 148.9 to 151 °C. On the same count and under the same terms, then `COC(=O)c1ccc(-c2nccc3ccn(S(=O)(=O)c4ccc(OC)cc4)c23)cc1` [Compound 7, 4-[1-(4-methoxy-benzenesulfonyl)-1H-pyrrolo[2,3-c]pyridin-7-yl]-benzoic acid methyl ester], with 143.5 to 146.5 °C. With `COc1ccc(S(=O)(=O)n2ccc3ccnc(-c4ccc(F)cc4)c32)cc1` [Compound 8, 7-(4-fluoro-phenyl)-1-(4-methoxy-benzenesulfonyl)-1H-pyrrolo[2,3-c]pyridine], the melting point was 136 to 137 °C. The same measure, in the same setting: then `COc1ccc(S(=O)(=O)n2ccc3ccnc(-c4ccc(Cl)cc4)c32)cc1` [Compound 9, 7-(4-chloro-phenyl)-1-(4-methoxy-benzenesulfonyl)-1H-pyrrolo[2,3-c]pyridine], with 125.5 to 128.5 °C. Same read-out and setting: in the case of `COc1ccc(S(=O)(=O)n2ccc3ccnc(-c4ccc(O)cc4)c32)cc1` [Compound 10, 4-[1-(4-methoxy-benzenesulfonyl)-1H-pyrrolo[2,3-c]pyridin-7-yl]-phenol] it was 179 to 182 °C; in that of `COc1ccc(-c2nccc3ccn(S(=O)(=O)c4ccc(OC)cc4)c23)cc1` [Compound 11, 1-(4-methoxy-benzenesulfonyl)-7-(4-methoxy-phenyl)-1H-pyrrolo[2,3-c]pyridine], 162.8 to 164.8 °C. Still for that read-out and setting: then `COc1ccc(S(=O)(=O)n2ccc3ccnc(-c4ccc(N(C)C)cc4)c32)cc1` [Compound 12, {4-[1-(4-methoxy-benzenesulfonyl)-1H-pyrrolo[2,3-c]pyridin-7-yl]-phenyl}-dimethyl-amine], with 111.5 to 114.5 °C; and `COc1ccc(S(=O)(=O)n2ccc3ccnc(-c4ccncc4)c32)cc1` [Compound 13, 1-(4-methoxy-benzenesulfonyl)-7-pyridin-4-yl-1H-pyrrolo[2,3-c]pyridine], with 193.1 to 194.3 °C; and `COc1ccc(S(=O)(=O)n2ccc3ccnc(-c4ccc([N+](=O)[O-])cc4)c32)cc1` [Compound 14, 1-(4-methoxy-benzenesulfonyl)-7-(4-nitro-phenyl)-1H-pyrrolo[2,3-c]pyridine], with 177.5 to 178.8 °C.

The molecule `COc1ccc(S(=O)(=O)n2ccc3ccnc(-c4ccc(C(F)(F)F)cc4)c32)cc1` [Compound 15, 1-(4-methoxy-benzenesulfonyl)-7-(4-trifluoromethyl-phenyl)-1H-pyrrolo[2,3-c]pyridine] yielded a melting point of 143.1 to 144.9 °C. Same read-out and setting: then `COc1ccc(S(=O)(=O)n2ccc3ccnc(-c4ccco4)c32)cc1` [Compound 16, 7-furan-2-yl-1-(4-methoxy-benzenesulfonyl)-1H-pyrrolo[2,3-c]pyridine], with 127.1 to 130.3 °C; and `COc1ccc(S(=O)(=O)n2ccc3cccc(-c4ccc(C#N)cc4)c32)cc1` [Compound 18, 4-[1-(4-methoxy-benzenesulfonyl)-1H-indol-7-yl]-benzonitrile], with 164.3 to 165.7 °C; and `COc1ccc(S(=O)(=O)n2ccc3cccc(-c4ccc(F)cc4)c32)cc1` [Compound 19, 7-(4-fluoro-phenyl)-1-(4-methoxy-benzenesulfonyl)-1H-indole], with 181.2 to 182.4 °C. For the molecule `COc1ccc(S(=O)(=O)N2CCc3cccc(-c4ccc(N)cc4)c32)cc1` [Compound 20, 4-[1-(4-methoxy-benzenesulfonyl)-2,3-dihydro-1H-indol-7-yl]-phenylamine], the melting point lay within 183.9 to 185.6 °C. For the same molecule, in data set [1], the IC50 lay in the range of 100 to 700 nM. Taken in the same sequence, the figures for `COc1ccc(S(=O)(=O)N2CCc3cccc(-c4ccc(F)c(F)c4)c32)cc1` [Compound 21, 7-(3,4-difluoro-phenyl)-1-(4-methoxy-benzenesulfonyl)-2,3-dihydro-1H-indole] were 180.2 to 181.4 °C and 1 to 99 nM. Taken in the same sequence, the figures for `COc1ccc(-c2cccc3c2N(S(=O)(=O)c2ccc(OC)cc2)CC3)cc1` [Compound 23, 1-(4-methoxy-benzenesulfonyl)-7-(4-methoxy-phenyl)-2,3-dihydro-1H-indole] were 176.3 to 177.4 °C and 100 to 700 nM. Taken in the same sequence, the figures for `COc1ccc(S(=O)(=O)N2CCc3cccc(-c4ccc(F)nc4)c32)cc1` [Compound 25, 7-(6-fluoro-pyridin-3-yl)-1-(4-methoxy-benzenesulfonyl)-2,3-dihydro-1H-indole] were 139.8 to 141.7 °C and 100 to 700 nM. The molecule `COc1ccc(S(=O)(=O)N2CCc3cccc(-c4ccc(O)cc4)c32)cc1` [Compound 26, 4-[1-(4-methoxy-benzenesulfonyl)-2,3-dihydro-1H-indol-7-yl]-phenol] registered a melting point of 179.4 to 180.5 °C. Besides, the IC50 in data set [1] lay in the range of 100 to 700 nM. As to `COc1ccc(S(=O)(=O)N2CCc3cccc(-c4ccc(F)cc4)c32)cc1` [Compound 28, 7-(4-fluoro-phenyl)-1-(4-methoxy-benzenesulfonyl)-2,3-dihydro-1H-indole], the melting point lay in the range of 178.1 to 179.4 °C. Moreover, in data set [1], the IC50 lay in the range of 1 to 99 nM. Taken in the same sequence, the figures for `COc1ccc(S(=O)(=O)N2CCc3cccc(-c4ccco4)c32)cc1` [Compound 29, 7-furan-2-yl-1-(4-methoxy-benzenesulfonyl)-2,3-dihydro-1H-indole] were 176.7 to 177.7 °C and 1 to 99 nM. Taken in the same sequence, the figures for `COc1ccc(S(=O)(=O)N2CCc3cccc(-c4cccs4)c32)cc1` [Compound 30, 1-(4-methoxy-benzenesulfonyl)-7-thiophen-2-yl-2,3-dihydro-1H-indole] were 127.7 to 129.1 °C and 100 to 700 nM. In turn, `COc1ccc(S(=O)(=O)N2CCc3cccc(-c4ccc(N(C)C)cc4)c32)cc1` [Compound 31, {4-[1-(4-methoxy-benzenesulfonyl)-2,3-dihydro-1H-indol-7-yl]-phenyl}-dimethyl-amine] displayed a melting point of 178.4 to 179.7 °C. Moreover, the IC50 in data set [1] lay in the range of 100 to 700 nM. Regarding `COc1ccc(S(=O)(=O)N2CCc3cccc(-c4cc(OC)c(OC)c(OC)c4)c32)cc1` [Compound 32, 1-(4-methoxy-benzenesulfonyl)-7-(3,4,5-trimethoxy-phenyl)-2,3-dihydro-1H-indole], the melting point lay in the range of 202.5 to 204.8 °C. For the molecule `COc1ccc(S(=O)(=O)N2CCc3cccc(-c4ccc(Cl)cc4)c32)cc1` [Compound 33, 7-(4-chloro-phenyl)-1-(4-methoxy-benzenesulfonyl)-2,3-dihydro-1H-indole], the melting point lay in the range of 177.1 to 178.3 °C. In addition, in data set [1], the IC50 was in the range of 100 to 700 nM.

As to `COc1ccc(S(=O)(=O)N2CCc3cccc(-c4ccc(C(F)(F)F)cc4)c32)cc1` [Compound 34, 1-(4-methoxy-benzenesulfonyl)-7-(4-trifluoromethyl-phenyl)-2,3-dihydro-1H-indole], the melting point was in the range of 179.7 to 181 °C. Besides, the IC50 in data set [1] lay within 100 to 700 nM.

`COc1ccc(S(=O)(=O)N2CCc3cccc(-c4cccc(F)c4)c32)cc1` [Compound 35, 7-(3-fluoro-phenyl)-1-(4-methoxy-benzenesulfonyl)-2,3-dihydro-1H-indole] came in with a melting point of 180 to 181.3 °C. In turn, `COc1ccc(S(=O)(=O)N2CCc3cccc(-c4ccccn4)c32)cc1` [Compound 36, 1-(4-methoxy-benzenesulfonyl)-7-pyridin-2-yl-2,3-dihydro-1H-indole] returned a melting point of 195.1 to 197 °C. Also, the IC50 in data set [1] lay in the range of 1 to 99 nM. Molecule `COc1ccc(S(=O)(=O)N2CCc3cccc(-c4ccc(C=CC(=O)NO)cc4)c32)cc1` [Compound 41, N-hydroxy-3-{4-[1-(4-methoxy-benzenesulfonyl)-2,3-dihydro-1H-indol-7-yl]-phenyl}-acrylamide] yielded a melting point of 200 to 201 °C.

`NS(=O)(=O)c1ccc(S(=O)(=O)N2CCc3cccc(-c4ccc(F)cc4)c32)cc1` [Compound 42, 4-[7-(4-fluoro-phenyl)-2,3-dihydro-indole-1-sulfonyl]-benzenesulfonamide] returned a melting point of 188.7 to 190.2 °C. Same read-out and setting: then `NS(=O)(=O)c1ccc(S(=O)(=O)N2CCc3cccc(-c4ccncc4)c32)cc1` [Compound 43, 4-(7-pyridin-4-yl-2,3-dihydro-indole-1-sulfonyl)-benzenesulfonamide], with 241.7 to 242.9 °C. On the same count and under the same terms, in the case of `COc1ccc(S(=O)(=O)n2ccc3ccnc(-c4cccs4)c32)cc1` [Compound 44, 1-(4-methoxy-benzenesulfonyl)-7-thiophen-2-yl-1H-pyrrolo[2,3-c]pyridine] it was 112.2 to 113.7 °C; in that of `COc1ccc(S(=O)(=O)N2CCc3cccc(-c4cccnc4)c32)cc1` [Compound 46, 1-(4-methoxy-benzenesulfonyl)-7-pyridin-3-yl-2,3-dihydro-1H-indole], 178.8 to 181 °C.

Source of the values: patent US8119683B2, “Aryl substituted sulfonamide compounds and their use as anticancer agents” (Taipei Medical University, priority 2009, dated 2012).
